Reference: article PMC7804859, “A metabolically stable apelin-17 analog decreases AVP-induced antidiuresis and improves hyponatremia” (Nature Communications, 2021)
Several values for one entry are separate records, joined by “and”; a condition that tells them apart may be missing. Identical values can stand only once.

How the values were obtained:
human V2-R = target: T1, human V2-R (Homo sapiens, UniProt P30518); test: cAMP production in HEK-293 T cells expressing the human V2-R (HTRF); assay type: cell-based; settings: HEK-293 T cells, human V2-R
T1 construct: host or cells: HEK-293T cells, transient transfection
Protocol: 152 Supplementary Methods
154 We quantified cAMP production with the cAMP dynamic 2 assay kit (Cisbio Bioassays,
155 Codolet, France), which is based on homogeneous time-resolved fluorescence (HTRF)
156 technology, as previously described 1. […]
For cells expressing the V2-R, HEK-
160 293T cells were transiently transfected with the human V2-R (cDNA Resource Center), after
161 48h, 4000 cells/well were added to white 384-well optiplates and stimulated either with 5
Cells were then lysed, and
165 cAMP levels were determined in accordance with the kit manufacturer’s instructions.
166 Stimulation was performed in stimulation buffer-IBMX (SBI) (Hank’s balanced salt solution
167 (HBSS-Life Technology), 5 mmol/l Hepes, 0.1% BSA stabilizer (Perkin Elmer), 1 mmol/l
168 isobutylmethylxanthine (IBMX, Sigma Aldrich, pH 7.4)). […]

rat apelin-R = target: T2, rat apelin-R (Rattus norvegicus, UniProt Q9JHG3); test: Radioligand binding ([125I]-pE13F) to membranes from CHO cells stably expressing rat apelin-R-EGFP; settings: 1 h 20 °C, pH 7.4, new batch of LIT01-196
T2 construct: expressed in transfected cells; membrane preparation
T2 sequence (Q9JHG3 1-377): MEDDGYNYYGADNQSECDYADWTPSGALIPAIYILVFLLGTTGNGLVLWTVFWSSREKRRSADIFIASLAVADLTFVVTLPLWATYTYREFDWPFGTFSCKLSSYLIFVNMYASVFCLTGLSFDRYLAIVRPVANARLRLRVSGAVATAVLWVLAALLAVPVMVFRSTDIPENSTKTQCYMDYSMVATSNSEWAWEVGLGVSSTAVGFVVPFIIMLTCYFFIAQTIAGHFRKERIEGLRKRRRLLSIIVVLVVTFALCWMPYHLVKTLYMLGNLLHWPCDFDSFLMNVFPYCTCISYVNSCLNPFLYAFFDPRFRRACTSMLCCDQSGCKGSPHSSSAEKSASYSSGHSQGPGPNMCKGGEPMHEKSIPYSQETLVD
Protocol: Membranes from CHO cells stably expressing rat apelin-R-EGFP were prepared as previously described[23]. […] The reaction was stopped by adding ice-cold binding buffer and filtering through Whatman GF/C filters. The filters were washed and radioactivity was counted with a Wizard 1470 Wallac gamma counter (PerkinElmer, Turku, Finland).

[1] = Plasma LIT01-196 levels by mass spectrometry after i.v. injection in mice; assay type: in vivo, mouse; settings: for Apelin (plasma LIT01-196 concentration by mass spectrometry): 300 nmol/kg IV
Source text: The detection limit was 6
The within- and between-assay
229 coefficients of variation were 3 and 5%, respectively6. The recovery (mean±SEM) was
233 the elimination rate constant.
236 animals per time point).
242 and 0.05% formic acid; solvent B: acetonitrile). Plasma samples were processed before RP-
244 acetonitrile for protein precipitation and compound extraction. Samples were vortex-stirred
248 standard and compared to standard curves. Standard curves were obtained by analyzing
250 using the same procedure. Pharmacokinetics parameters were calculated using a one-
Peptide injection and blood sample collection were performed by […]

anti-K17F serum = test: Inhibition of [125I]-pE13F binding to anti-K17F serum (apelin RIA, cross-reactivity); set-up: species or system rabbit; settings: read-out: IC50, recognition by antibody directed against K17F, antiserum 1/4500
Protocol: The columns were then treated as described in
Samples (0.1ml) w ere mixed with 125I-
212 used this radioligand instead of [Glp65, Nle75, Tyr77] [125I]-apelin13 since the substitution of
214 derivatives as described previously by 3,4.
216 incubated for 10 min at room temperature.
This antiserum identified the apelin present in the
Most of the apelin in human plasma was […]

mice = test: Left ventricular ejection fraction by echocardiography in mice; assay type: in vivo, mouse
Protocol: LVEF was determined in mice under isoflurane anesthesia at baseline and 3 h after s.c. administration of the compound, as previously described.

[2] = system: normonatremic Sprague-Dawley rats; test: Blood and urine chemistry after 4 days of s.c. administration in rats; assay type: in vivo, rat; set-up: Plasma glucose: unit not given beside the values; Blood urea nitrogen / 24h Urine glucose: unit not given here
Protocol: Fractional excretion of water (in %) was calculated using the following formula: (plasma creatinine/urine creatinine) × 100. Fractional excretion of sodium (in %) was calculated using the following formula: (plasma creatinine × urine sodium/urine creatinine × plasma sodium) × 100. Blood and urine creatinine, urea nitrogen, and glucose levels were determined using an AU5800 Beckman Coulter chemistry analyzer (Beckman Coulter, Villepinte, France).

[3] = Plasma protein binding (Rapid Equilibrium Dialysis); assay type: in vitro ADME; settings: RED plate, 12 kDa cutoff, plasma vs phosphate buffer, 10 µmol/l, 4 hours, 37 °C, 600 rpm, UHPLC-MS/MS; value at equilibrium
Protocol: 252 TechMedILL platfor m (Illkirch) reviewed and approved by the agriculture ministry regulating
256 Male Sprague-Dawley rats were killed by decapitation, and trunk blood was collected on ice
257 (into 50 µl of 0.3M EDTA (pH 7.4) per 1 ml of blood). Samples were centrifuged (2,600 x g,
258 4°C, 20 min), and the resulting plasma was split into 500 µl aliquots, to which we added 168
259 µl of 3N HCl before storage at -80°C. The AVP RIA was performed as previously described
260 5, using a specific AVP-[Arg8] antibody (final dilution, 1/4.5) and [125I]-(Tyr2Arg8)-AVP
261 (2200 Ci/mmol, Perkin-Elmer, Billerica, MA; 15000 dpm) as a tracer.
263 Plasma protein binding of LIT01-196 was determined using Thermo Scientific Single-Use
264 RED Plate (Rapid Equilibrium Dialysis) composed of dialysis inserts with a me mbrane cutoff
265 of 12 kDa. Compound (10 µmol/l) was spiked in plasma chamber (donor side); phosphate
266 buffer was placed in the receiving side. The plate was rotated at 37 °C on an orbital shaker at
267 600 rpm for 4 hours. Peptide concentration was determined for the plasma sample that
268 represents the bound fraction, the peptide concentration was deter mined for the buffer sample
269 that represents the free fraction. The samples were analyzed by UHPLC-MS/MS (LC-MS […]
274 proteins. Percentages of bound and free peptides were calculated as follows: % free peptide = […]

apelin-R and V2-R = test: dDAVP-induced cAMP production in CHO cells stably expressing both the apelin-R and the V2-R; assay type: cell-based
[4] = in plasma; cited from earlier work

T1 sequence (P30518 whole entry): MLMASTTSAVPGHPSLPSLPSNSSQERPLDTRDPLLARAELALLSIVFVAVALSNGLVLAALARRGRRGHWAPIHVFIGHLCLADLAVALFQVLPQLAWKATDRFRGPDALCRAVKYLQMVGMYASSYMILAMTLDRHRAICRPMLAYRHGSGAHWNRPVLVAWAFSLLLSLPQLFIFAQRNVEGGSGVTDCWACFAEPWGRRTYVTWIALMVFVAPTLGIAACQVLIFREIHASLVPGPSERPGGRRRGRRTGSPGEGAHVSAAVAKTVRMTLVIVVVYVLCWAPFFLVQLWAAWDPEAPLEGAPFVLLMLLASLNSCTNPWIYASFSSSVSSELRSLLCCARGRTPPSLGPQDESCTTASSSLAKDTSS

CSCC[C@H](NC(=O)[C@@H]1CCCN1C(=O)CNC(=O)[C@H](CCCCN)NC(=O)[C@H](Cc1c[nH]cn1)NC(=O)[C@H](CO)NC(=O)[C@H](CC(C)C)NC(=O)[C@H](CCCNC(=N)N)NC(=O)[C@@H]1CCCN1C(=O)[C@H](CCCNC(=N)N)NC(=O)[C@H](CCC(N)=O)NC(=O)[C@H](CCCNC(=N)N)NC(=O)[C@H](CCCNC(=N)N)NC(=O)[C@H](Cc1ccccc1)NC(=O)[C@H](CCCCN)NC(=O)CCC(F)(F)C(F)(F)C(F)(F)C(F)(F)C(F)(F)C(F)(F)C(F)(F)C(F)(F)F)C(=O)N1CCC[C@H]1C(=O)N[C@@H](Cc1ccccc1)C(=O)O [LIT01-196]
effect on cAMP production induced by 1 µmol/l AVP (human V2-R; 1 µmol/l compound, 30 min 37 °C): did not modify
effect on basal cAMP production (human V2-R; compound alone at 1 µmol/l): did not modify
Ki (rat apelin-R): 0.34 ± 0.05 nM
Apelin (plasma LIT01-196 concentration by mass spectrometry) ([1]; temps.min 5, single animals): 774.627 and 804.594 and 622.343
Apelin (plasma LIT01-196 concentration by mass spectrometry) ([1]; temps.min 15, single animals): 548.524 and 627.056 and 820.177
Apelin (plasma LIT01-196 concentration by mass spectrometry) ([1]; temps.min 28, single animals): 266.538 and 138.326 and 371.965
Apelin (plasma LIT01-196 concentration by mass spectrometry) ([1]; temps.min 60, single animals): 64.4359 and 230.369 and 324.336
half-life ([1]; CD-1, mouse, in vivo, iv, 300 nmol/kg i.v., UHPLC-MS/MS, one-compartment model, 3 animals per time point): 29 min
IC50 (anti-K17F serum): 0.56 ± 0.04 nM
FEVG.TM. 3 hours (mice; 1200 nmol/kg SC, 3 hours, individual animals (Fig. S5B source data)): 55.1558 and 58.4253 and 55.5031 and 58.4836 and 58.0536
FEVG.TM. Baseline (mice; 1200 nmol/kg SC, baseline, individual animals (Fig. S5B source data)): 49.7762 and 61.2453 and 58.1457 and 44.7681 and 49.1413
LVEF 3 h after administration (mice; 1200 nmol/kg s.c., mice, n = 5, 52.6 ± 3.0 before administration, p = 0.31): 57.1 ± 0.7%
Plasma creatinine ([2]; 900 nmol/kg SC, individual animals (Fig. S5G source data)): 21 and 24 and 22
Blood urea nitrogen ([2]; 900 nmol/kg SC, individual animals (Fig. S5H source data)): 7 and 8 and 5.6 and 6.8 and 6.1
Plasma potassium ([2]; 900 nmol/kg SC, individual animals (Fig. S5J source data)): 4.54 and 4.76 and 5.03 and 4.26 and 4.35
Plasma glucose ([2]; 900 nmol/kg SC, individual animals (Fig. S5K source data)): 8.1 and 9.1 and 7.4 and 8 and 7.6
24h Urine glucose ([2]; 900 nmol/kg SC, individual animals (Fig. S5L source data)): 0.04364 and 0.0331 and 0.0123 and 0
blood creatinine, urea nitrogen, sodium, and potassium levels ([2]; 900 nmol/kg s.c. for 4 days, rats): not changed
plasma or urine glucose levels ([2]; repeated 900 nmol/kg s.c., normonatremic rats): not associated with a change
bound fraction to plasma proteins [3]: 69 ± 7%
dDAVP-induced cAMP production (apelin-R and V2-R): dose-dependently inhibits
plasma half-life [4]: > 1440 min
